From patent US12552785B2, “Pyrazolo[1,5-α]pyridine derivative, preparation method therefor, and composition and use thereof” (SHENZHEN ZHONGGE BIOLOGICAL TECHNOLOGY CO., LTD., priority 2020, dated 2026)

Assays:
RET = RET (Homo sapiens, UniProt P07949); test: HTRF method for testing the inhibitory activity of compounds against RET; type: biochemical; conditions: IC50 by nonlinear regression, read-out: RET kinase activity
Method: (a) In Vitro Screening Experiment-HTRF Method for Testing the Inhibitory Activity of Compounds Against RET Experimental Procedure: 1. […] 2. The test compound (5 mM stock solution) was diluted 5 folds to 1 mM with 100% dimethyl sulfoxide; the compound was diluted into 10 concentrations at an equal ratio of 1:3 in a 384-well dilution plate. 3. 0.2 μL of the serially diluted compound was added to a 384-well plate using an Echo 550 pipetting system, 2 replicate wells for each concentration, and the final concentration of dimethyl sulfoxide was 0.5% (v/v). […] 6. […] The reaction solution was centrifuged at 1000 g for 30 s, and then sealed, and incubated at room temperature for 30 min. 8. […] 10. […] 11. […] IC50 was calculated with software GraphPad 6.0 by fitting inhibition values and logarithms of compound concentrations to a nonlinear regression (dose response−variable slope).

VEGFR2 = VEGFR2 (Homo sapiens, UniProt P35968); test: HTRF method for testing the inhibitory activity of compounds against VEGFR2; type: biochemical; conditions: IC50 by nonlinear regression, read-out: VEGFR2 kinase activity
VEGFR2, sequence (P35968 20-1356, species assumed): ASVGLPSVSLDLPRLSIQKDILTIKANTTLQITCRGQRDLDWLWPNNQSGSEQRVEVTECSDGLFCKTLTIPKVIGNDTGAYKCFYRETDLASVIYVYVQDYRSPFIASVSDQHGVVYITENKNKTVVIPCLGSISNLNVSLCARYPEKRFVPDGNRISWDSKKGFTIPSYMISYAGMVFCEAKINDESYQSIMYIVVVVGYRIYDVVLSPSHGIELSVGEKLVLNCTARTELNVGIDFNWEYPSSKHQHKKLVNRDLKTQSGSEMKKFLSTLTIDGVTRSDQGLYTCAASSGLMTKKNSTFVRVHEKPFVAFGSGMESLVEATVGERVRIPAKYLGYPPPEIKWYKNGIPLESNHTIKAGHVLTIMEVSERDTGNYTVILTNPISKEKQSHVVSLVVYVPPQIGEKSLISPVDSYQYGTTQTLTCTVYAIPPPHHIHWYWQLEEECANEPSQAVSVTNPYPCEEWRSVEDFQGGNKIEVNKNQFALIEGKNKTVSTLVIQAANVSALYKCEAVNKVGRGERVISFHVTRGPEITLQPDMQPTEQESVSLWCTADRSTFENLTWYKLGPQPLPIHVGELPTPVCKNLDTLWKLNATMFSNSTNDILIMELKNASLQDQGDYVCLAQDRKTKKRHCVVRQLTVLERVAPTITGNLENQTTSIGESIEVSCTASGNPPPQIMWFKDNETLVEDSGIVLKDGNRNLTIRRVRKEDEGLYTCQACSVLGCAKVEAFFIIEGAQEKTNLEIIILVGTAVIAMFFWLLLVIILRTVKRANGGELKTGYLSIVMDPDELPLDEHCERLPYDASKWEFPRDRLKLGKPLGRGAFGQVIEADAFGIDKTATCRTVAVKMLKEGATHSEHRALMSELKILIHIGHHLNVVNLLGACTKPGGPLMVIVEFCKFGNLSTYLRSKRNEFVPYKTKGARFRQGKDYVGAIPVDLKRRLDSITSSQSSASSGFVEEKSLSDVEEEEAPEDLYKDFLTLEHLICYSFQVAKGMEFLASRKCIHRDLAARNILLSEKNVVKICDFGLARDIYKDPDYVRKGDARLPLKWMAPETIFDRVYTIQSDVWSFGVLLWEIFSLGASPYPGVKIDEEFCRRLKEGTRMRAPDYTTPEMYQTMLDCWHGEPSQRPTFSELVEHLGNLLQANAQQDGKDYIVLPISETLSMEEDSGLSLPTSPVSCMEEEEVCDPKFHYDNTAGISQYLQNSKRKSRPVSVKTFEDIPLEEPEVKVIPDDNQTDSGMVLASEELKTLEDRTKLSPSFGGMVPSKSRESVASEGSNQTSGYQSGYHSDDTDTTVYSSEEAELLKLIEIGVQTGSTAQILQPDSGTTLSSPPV
Method: (b) In Vitro Screening Experiment—HTRF Method for Testing the Inhibitory Activity of Compounds Against VEGFR2 Experimental Procedure: 1. […] The test compound (5 mM stock solution) was diluted 5 folds to 1 mM with 100% dimethyl sulfoxide; the compound was diluted into 10 concentrations at an equal ratio of 1:3 in a 384-well dilution plate. 3. […] 6. […] The reaction solution was centrifuged at 1000 g for 30 s, and then sealed, and incubated at room temperature for 40 min. 8. […] 10. […] 11. […] 12. IC50 was calculated with software GraphPad 6.0 by fitting inhibition values and logarithms of compound concentrations to a nonlinear regression (dose response−variable slope).

Ba/F3-KIF5B-RET cell = target: T1, Ba/F3-KIF5B-RET cell (Homo sapiens, UniProt P07949); test: CellTiter-Glo luminescence assay for inhibitory activity against Ba/F3-KIF5B-RET cell; type: cell-based; conditions: Ba/F3-KIF5B-RET cells, 72 h
T1 construct: fused on or other part: P33176 (Kinesin-1 heavy chain)
T1 sequence (P07949 whole entry, stated change not applied, the tested form may be a part): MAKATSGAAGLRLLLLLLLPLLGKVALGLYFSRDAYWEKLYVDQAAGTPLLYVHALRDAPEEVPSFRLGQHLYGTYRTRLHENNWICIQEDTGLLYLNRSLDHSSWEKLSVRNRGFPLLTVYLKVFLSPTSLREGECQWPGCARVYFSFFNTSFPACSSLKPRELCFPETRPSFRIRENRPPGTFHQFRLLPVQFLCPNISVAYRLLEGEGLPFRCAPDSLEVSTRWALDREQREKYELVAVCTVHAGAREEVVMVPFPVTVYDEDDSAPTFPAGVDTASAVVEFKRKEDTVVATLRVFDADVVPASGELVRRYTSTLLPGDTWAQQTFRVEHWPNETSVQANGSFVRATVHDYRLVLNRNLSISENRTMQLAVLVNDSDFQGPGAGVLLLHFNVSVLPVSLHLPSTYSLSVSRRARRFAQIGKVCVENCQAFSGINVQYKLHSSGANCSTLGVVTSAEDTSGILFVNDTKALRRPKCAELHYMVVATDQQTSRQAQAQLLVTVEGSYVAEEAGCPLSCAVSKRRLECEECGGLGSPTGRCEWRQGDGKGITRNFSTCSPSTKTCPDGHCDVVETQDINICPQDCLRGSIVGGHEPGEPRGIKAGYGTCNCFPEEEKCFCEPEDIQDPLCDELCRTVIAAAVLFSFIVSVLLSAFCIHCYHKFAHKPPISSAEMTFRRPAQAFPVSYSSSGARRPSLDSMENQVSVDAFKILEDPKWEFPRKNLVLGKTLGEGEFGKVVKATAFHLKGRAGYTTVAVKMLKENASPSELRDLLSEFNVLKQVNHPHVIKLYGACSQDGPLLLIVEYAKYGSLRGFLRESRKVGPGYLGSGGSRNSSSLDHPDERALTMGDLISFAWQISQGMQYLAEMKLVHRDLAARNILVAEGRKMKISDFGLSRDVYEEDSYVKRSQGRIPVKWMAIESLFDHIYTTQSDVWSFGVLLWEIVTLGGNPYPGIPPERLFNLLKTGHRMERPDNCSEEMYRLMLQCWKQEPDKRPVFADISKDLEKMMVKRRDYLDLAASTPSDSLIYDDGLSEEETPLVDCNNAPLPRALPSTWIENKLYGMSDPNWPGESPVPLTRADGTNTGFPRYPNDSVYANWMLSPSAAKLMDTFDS
Description: (c) In Vitro Screening Experiment—CellTiter-Glo Luminescence Assay for Testing the Inhibitory Activity of Compounds Against Ba/F3-KIF5B-RET Cell Experimental Procedure: 1. The mammalian cell expression vector containing human KIF5B-RET cDNA was introduced into Ba/F3 cells using the Neon® transfection system method, and the surviving clones screened by puromycin were subjected to cell growth inhibitory function experiments and Western blotting to verify cell lines with stable and high expression of RET. 2. […] 3. The test compound (5 mM stock) was diluted 2.5 folds to 2 mM with 100% dimethyl sulfoxide; and the compound was diluted into 10 concentrations at an equal ratio of 1:3 in a 384-well dilution plate. 4. […] 6. […] 7. By fitting the data with XLFit 5.0 based on the parameters formula, the IC50 value was calculated as: Y=Bottom+(Top−Bottom)/(1+10^((Log IC50−X)*HillSlope)).

RET, sequence (P07949 29-1114): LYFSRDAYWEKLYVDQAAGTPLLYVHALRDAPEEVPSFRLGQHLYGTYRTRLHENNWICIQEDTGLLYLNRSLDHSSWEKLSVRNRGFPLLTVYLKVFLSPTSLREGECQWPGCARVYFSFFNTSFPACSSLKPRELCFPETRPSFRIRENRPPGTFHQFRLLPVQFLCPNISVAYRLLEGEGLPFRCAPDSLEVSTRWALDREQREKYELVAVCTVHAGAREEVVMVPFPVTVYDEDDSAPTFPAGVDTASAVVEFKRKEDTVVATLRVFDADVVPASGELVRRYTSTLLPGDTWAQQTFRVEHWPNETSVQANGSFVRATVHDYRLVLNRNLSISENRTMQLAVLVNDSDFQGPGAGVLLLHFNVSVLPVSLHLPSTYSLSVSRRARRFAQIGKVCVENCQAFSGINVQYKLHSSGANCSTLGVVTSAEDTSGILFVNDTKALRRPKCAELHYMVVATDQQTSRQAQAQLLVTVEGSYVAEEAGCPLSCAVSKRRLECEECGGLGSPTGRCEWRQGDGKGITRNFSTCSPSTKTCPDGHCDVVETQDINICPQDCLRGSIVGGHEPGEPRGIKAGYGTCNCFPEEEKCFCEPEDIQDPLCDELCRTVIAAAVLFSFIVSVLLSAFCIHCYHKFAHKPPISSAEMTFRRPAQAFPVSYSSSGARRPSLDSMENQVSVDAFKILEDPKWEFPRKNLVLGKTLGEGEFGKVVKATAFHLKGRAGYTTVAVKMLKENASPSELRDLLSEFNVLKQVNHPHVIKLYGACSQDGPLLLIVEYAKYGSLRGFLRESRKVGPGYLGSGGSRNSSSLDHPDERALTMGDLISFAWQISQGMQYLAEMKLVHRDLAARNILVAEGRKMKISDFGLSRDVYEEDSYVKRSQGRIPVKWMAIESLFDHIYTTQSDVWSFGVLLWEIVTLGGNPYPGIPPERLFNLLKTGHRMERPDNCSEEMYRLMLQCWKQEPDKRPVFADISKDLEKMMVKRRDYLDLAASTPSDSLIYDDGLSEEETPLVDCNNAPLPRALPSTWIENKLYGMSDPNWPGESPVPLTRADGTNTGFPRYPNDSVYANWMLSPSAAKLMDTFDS

| SMILES | IC50 (RET) [µM] | IC50 (VEGFR2) [µM] | GI50 (Ba/F3-KIF5B-RET cell) [µM] |
| --- | --- | --- | --- |
| CCn1cc(-c2cc(-c3ccc(N(C)[C@@H](C)c4ccc(-n5cc(F)cn5)nc4)nc3)c3c(C#N)cnn3c2)cn1 [Compound 38, (S)-6-(1-ethyl-1H-pyrazol-4-yl)-4-(6-((1-(6-(4-fluoro-1H-pyrazol-1-yl)pyridine-3-yl)ethyl)(methyl)amino)pyridin-3-yl)pyrazolo[1,5-a]pyridine-3-carbonitrile] | 0.00056 | 0.00739 | 0.00514 |
| CC(C)Nc1cc(-c2ccc(N(C)[C@@H](C)c3ccc(-n4cc(F)cn4)nc3)nc2)c2c(C#N)cnn2c1 [Compound 50, (S)-4-(6-((1-(6-(4-fluoro-1H-pyrazol-1-yl)pyridin-3-yl)ethyl)(methyl)amino)pyridine-3-yl)-6-(isopropylamino)pyrazolo[1,5-a]pyridine-3-carbonitrile] | 0.00167 | 0.156 | 0.104 |
| CN(Cc1ccc2ncccc2c1)c1ccc(-c2cc(OCC(C)(C)O)cn3ncc(C#N)c23)cn1 [Compound 14, 6-(2-hydroxy-2-methylpropoxy)-4-(6-(methyl(quinolin-6-ylmethyl)amino)pyridin-3-yl)pyrazolo[1,5-a]pyridine-3-carbonitrile] | 0.0166 | 0.347 | 0.22 |
| C[C@@H](c1ccc(-n2cc(F)cn2)nc1)N(C)c1ccc(-c2cc(N3CCC4(CC3)COC4)cn3ncc(C#N)c23)cn1 [Compound 25, (S)-4-(6-((1-(6-(4-fluoro-1H-pyrazol-1-yl)pyridin-3-yl)ethyl)(methyl)amino)pyridine-3-yl)-6-(2-oxo-7-azaspiro[3.5]nonan-7-yl)pyrazolo[1,5-a]pyridine-3-carbonitrile] | 0.00054 | 0.0611 | 0.0147 |
| CCCNc1cc(-c2ccc(N(C)[C@@H](C)c3ccc(-n4cc(F)cn4)nc3)nc2)c2c(C#N)cnn2c1 [Compound 60] | 0.00098 | 0.0439 | 0.0116 |
| C[C@@H](c1ccc(-n2cc(F)cn2)nc1)N(C)c1ccc(-c2cc(N3CCC(F)(F)CC3)cn3ncc(C#N)c23)cn1 [Compound 48] | 0.00432 | ≥ 5.44 | 0.142 |
| C[C@@H](c1ccc(-n2cc(F)cn2)nc1)N(C)c1ccc(-c2cc(N3CCC(C)(O)CC3)cn3ncc(C#N)c23)cn1 [Compound 23, (S)-4-(6-((1-(6-(4-fluoro-1H-pyrazol-1-yl)pyridin-3-yl)ethyl)(methyl)amino)pyridine-3-yl)-6-(4-hydroxy-4-methylpiperidin-1-yl)pyrazolo[1,5-a]pyridine-3-carbonitrile] | 0.00082 | 0.0749 | 0.0181 |
| C[C@@H](c1ccc(-n2cc(F)cn2)nc1)N(C)c1ccc(-c2cc(N3CC(C)(C#N)C3)cn3ncc(C#N)c23)cn1 [Compound 24] | 0.00099 | 0.0646 | 0.00585 |
| CC(C)(O)COc1cc(-c2ccc(NCc3ccc4cccnc4c3)nc2)c2c(C#N)cnn2c1 [Compound 13] | 0.00517 | 0.136 | 0.0508 |
| CC(C)COc1cc(-c2ccc(N(C)[C@@H](C)c3ccc(-n4cc(F)cn4)nc3)nc2)c2c(C#N)cnn2c1 [Compound 33, (S)-4-(6-((1-(6-(4-fluoro-1H-pyrazol-1-yl)pyridin-3-yl)ethyl)(methyl)amino)pyridine-3-yl)-6-isobutoxypyrazolo[1,5-a]pyridine-3-carbonitrile] | 0.00304 | > 5 | 0.413 |
| C[C@@H](c1ccc(N2CCCC2)nc1)N(C)c1ccc(-c2cc(OCC(C)(C)O)cn3ncc(C#N)c23)cn1 [Compound 62] | 0.00185 | 0.176 | 1.03 |
| C[C@@H](c1ccc(-n2cc(F)cn2)nc1)N(C)c1ccc(-c2cc(OCCO)cn3ncc(C#N)c23)cn1 [Compound 20] | 0.00025 | 0.0101 | 0.0135 |
| CCOc1cc(-c2ccc(N(C)[C@@H](C)c3ccc(-n4cc(F)cn4)nc3)nc2)c2c(C#N)cnn2c1 [Compound 30, (S)-4-(6-((1-(6-(4-fluoro-1H-pyrazol-1-yl)pyridin-3-yl)ethyl)(methyl)amino)pyridine-3-yl)-6-ethoxypyrazolo[1,5-a]pyridine-3-carbonitrile] | 0.00047 | 0.175 | 0.0151 |
| C[C@@H](c1ccc(-n2cc(F)cn2)nc1)N(C)c1ccc(-c2cc(NCC3CC3)cn3ncc(C#N)c23)cn1 [Compound 49, (S)-6-((cyclopropylmethyl)amino)-4-(6-((1-(6-(4-fluoro-1H-pyrazol-1-yl)pyridin-3-yl)ethyl)(methyl)amino)pyridin-3-yl)pyrazolo[1,5-a]pyridine-3-carbonitrile] | 0.00125 | > 5 | 0.0307 |
| CC(O)COc1cc(-c2ccc(N(C)[C@@H](C)c3ccc(-n4cc(F)cn4)nc3)nc2)c2c(C#N)cnn2c1 (stereo partly drawn) [Compound 36, (S)-4-(6-((1-(6-(4-fluoro-1H-pyrazol-1-yl)pyridin-3-yl)ethyl)(methyl)amino)pyridine-3-yl)-6-(2-hydroxypropoxy)pyrazolo[1,5-a]pyridine-3-carbonitrile] | 0.00276 | 0.047 | 0.0199 |
| C[C@@H](c1ccc(-n2cc(F)cn2)nc1)N(C)c1ccc(-c2cc(N3CCOCC3)cn3ncc(C#N)c23)cn1 [Compound 26, (S)-4-(6-((1-(6-(4-fluoro-1H-pyrazol-1-yl)pyridin-3-yl)ethyl)(methyl)amino)pyridine-3-yl)-6-morpholinopyrazolo[1,5-a]pyridine-3-carbonitrile] | 0.000245 | 0.033 | 0.0074 |
| C[C@@H](c1ccc(-n2cc(F)cn2)nc1)N(C)c1ccc(-c2cc(N3CCCCC3)cn3ncc(C#N)c23)cn1 [Compound 47, (S)-4-(6-((1-(6-(4-fluoro-1H-pyrazol-1-yl)pyridin-3-yl)ethyl)(methyl)amino)pyridine-3-yl)-6-(piperidin-1-yl)pyrazolo[1,5-a]pyridine-3-carbonitrile] | 0.00545 | > 5 | 0.236 |
| C#CCOc1cc(-c2ccc(N(C)[C@@H](C)c3ccc(-n4cc(F)cn4)nc3)nc2)c2c(C#N)cnn2c1 [Compound 53, (S)-4-(6-((1-(6-(4-fluoro-1H-pyrazol-1-yl)pyridin-3-yl)ethyl)(methyl)amino)pyridine-3-yl)-6-(prop-2-yn-1-yloxy)pyrazolo[1,5-a]pyridine-3-carbonitrile] | 0.00552 | 0.293 | 0.432 |
| C[C@@H](c1ccc(-n2cc(F)cn2)nc1)N(C)c1ccc(-c2cc(OCC(F)F)cn3ncc(C#N)c23)cn1 [Compound 34, (S)-4-(6-((1-(6-(4-fluoro-1H-pyrazol-1-yl)pyridin-3-yl)ethyl)(methyl)amino)pyridine-3-yl)-6-(2,2-difluoroethoxy)pyrazolo[1,5-a]pyridine-3-carbonitrile] | 0.00155 | 0.128 | 0.119 |
| C[C@@H](c1ccc(-n2cc(F)cn2)nc1)N(C)c1ccc(-c2cc(OCC(F)(F)F)cn3ncc(C#N)c23)cn1 [Compound 35, (S)-4-(6-((1-(6-(4-fluoro-1H-pyrazol-1-yl)pyridin-3-yl)ethyl)(methyl)amino)pyridine-3-yl)-6-(2,2,2-trifluoroethoxy)pyrazolo[1,5-a]pyridine-3-carbonitrile] | 0.00694 | 0.819 | 0.396 |
| CN(C(=O)c1ccc(N2CCCC2)nc1)c1ccc(-c2cc(OCC(C)(C)O)cn3ncc(C#N)c23)cn1 [Compound 64] | > 0.5 | 2.48 | 1.12 |
| CCN(Cc1ccc(-n2cc(F)cn2)nc1)c1ccc(-c2cc(OCC(C)(C)O)cn3ncc(C#N)c23)cn1 [Compound 57] | 0.0013 | 0.0592 | 0.0407 |
| CCCOc1cc(-c2ccc(N(C)[C@@H](C)c3ccc(-n4cc(F)cn4)nc3)nc2)c2c(C#N)cnn2c1 [Compound 39, (S)-4-(6-((1-(6-(4-fluoro-1H-pyrazol-1-yl)pyridin-3-yl)ethyl)(methyl)amino)pyridine-3-yl)-6-propoxypyrazolo[1,5-a]pyridine-3-carbonitrile] | 0.00193 | > 5 | 0.182 |
| C[C@H](Nc1ccc(-c2cc(OC[C@H]3CNCCO3)cn3ncc(C#N)c23)cn1)c1ccc(-n2cc(F)cn2)nc1 [Compound 4] | 0.00018 | 0.00031 | 0.012 |
